We go through 2 molecules from patent US12344863B2, “Method of producing stem cell-derived endothelial cells and uses thereof” (Emory University, priority 2016, dated 2025).

The test system of test [1] is hESCs (H9). In words: Mesodermal differentiation of hPSCs with CHIR99021 (qRT-PCR, flow cytometry). The format is cell-based, human. On the procedure: A clinically compatible stepwise protocol was developed which follows endothelial development (FIG. 1A). To develop a fully defined system, KnockOut™ Serum Replacement substituted for animal serum and feeder cells. As a first step, two coating materials were compared (collagen and Matrigel™), and induced differentiation of hPSCs into the mesodermal lineage using CHIR99021, a GSK3β inhibitor which mimics Wnt activation. hESCs (H9) were plated onto dishes coated with 0.01% collagen or 10% Matrigel™ and were cultured for 3, 5, and 7 days in hESC medium with or without 3 µM CHIR99021. […] Flow cytometry analyses confirmed that the percentage of KDR+ cells was highest (51.2±4.3%) under these conditions.
The hESCs (H1, H7, and H9) and hiPSCs (BJ1 and PGP1 obtained from Dr. George Daley) were cultured in mTeSR™ 1 (STEMCELL Technologies) on 5% matrigel at 37° C., 5% CO2. For directed differentiation, enzymatically dissociated clumps of hPSCs (lower than passage 60) were cultured on 0.01% collagen-coated plates in DMEMF-12 including 20% Serum Replacement (SR) with or without addition of specific differentiation factors for 7-10 days. hPSCs were cultured on collagen coated plates for an additional 14 days.
In general terms: Real-time PCR tracks product formation cycle by cycle.

For test [2], the system named is mesodermally differentiated hPSCs. In words: Endothelial differentiation of mesodermally differentiated hPSCs with or without DLL4 (qRT-PCR, flow cytometry). The format is cell-based, human. From the text: Flow cytometric analyses also confirmed increases in PECAM1, CDH5, and VWF (FIG. 1D) and decreases in PTPRC (CD45), CD34, KIT (CD117), and PROM1 (CD133). […] Similar results were found in three hESC lines (H1, H7, and H9) and two hiPSC lines (BJ1 and PGP1) by flow cytometry and qRT-PCR. […] Immunocytochemistry confirmed expression of EC markers VWF and CDH5 as well.

As for `Cc1cnc(-c2cnc(NCCNc3ccc(C#N)cn3)nc2-c2ccc(Cl)cc2Cl)[nH]1` [CHIR99021, 6-[[2-[[4-(2,4-dichlorophenyl)-5-(5-methyl-1H-imidazol-2-yl)-2-pyrimidinyl]amino]ethyl]amino]-3-pyridinecarbonitrile], the “percentage of KDR+ cells” value in test [1] (hESCs (H9), collagen coating, 3 µM CHIR99021, 3 days, flow cytometry) came out at 51.2±4.3%. Further, in test [1] (qRT-PCR), the “POU5F1 (OCT4) expression” value is listed as “reduced”; the “expression of definitive ectoderm (SOX1) and endoderm (FOXA2) markers” value is given as “not significantly changed”. The “T (Brachyury) and KDR transcripts” value in test [1] (qRT-PCR, collagen coating and CHIR99021 treatment for 3 days, vs Matrigel, 5 and 7 days, no CHIR99021) was “most highly expressed”.

As to “DLL4: polypeptide comprising a mature human or mammalian peptide sequence encoded by a DLL4 gene; a Notch ligand”, in test [2] (day 14, with vs without DLL4), the “PECAM1, CDH5, and VWF by flow cytometry” value is “increases”; the “PTPRC (CD45), CD34, KIT (CD117), and PROM1 (CD133) by flow cytometry” value was “decreases”. Further, in test [2] (qRT-PCR, day 14, addition of DLL4), the “KDR, PECAM1, CDH5 and VWF expression” value is given as “further increased”.
